Laboratory results as given in patent US7491827B2, “Aryl sulfonamides useful as inhibitors of chemokine receptor activity” (Millennium Pharmaceuticals, Inc., priority 2003, dated 2009).
Where two headings read alike, the source gives them in different places.

Target: T1, cloned human CCR8 receptor stably expressed in L1.2 cells (Homo sapiens, UniProt P51685)
T1 construct: expressed in transfected cells
Assay: whole cell binding screen: inhibition of biotinylated human I309 binding to CCR8 (FMAT 8100 HTS)
Conditions: biotinylated human I-309, 10 point concentration response starting at 10 μM
Procedure, shortened: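 Ten-point dilutions, top 10 μM final, were tested for displacing biotin-I309 from hCCR8-transfected L1.2 cells in HEPES-buffered HBSS with BSA and sodium azide, mixing 0.5 h before FMAT 8100 detection. Signals converted to percent inhibition against untreated wells and a 100 nM excess unlabeled I309 control.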

[1] = L1.2/hCCR8 cells, read-out: Ki of compounds to inhibit I-309 binding to CCR8
[2] = Ki of compounds to inhibit I-309 binding to CCR8, L1.2/hCCR8 cells

T1 sequence (P51685 whole entry): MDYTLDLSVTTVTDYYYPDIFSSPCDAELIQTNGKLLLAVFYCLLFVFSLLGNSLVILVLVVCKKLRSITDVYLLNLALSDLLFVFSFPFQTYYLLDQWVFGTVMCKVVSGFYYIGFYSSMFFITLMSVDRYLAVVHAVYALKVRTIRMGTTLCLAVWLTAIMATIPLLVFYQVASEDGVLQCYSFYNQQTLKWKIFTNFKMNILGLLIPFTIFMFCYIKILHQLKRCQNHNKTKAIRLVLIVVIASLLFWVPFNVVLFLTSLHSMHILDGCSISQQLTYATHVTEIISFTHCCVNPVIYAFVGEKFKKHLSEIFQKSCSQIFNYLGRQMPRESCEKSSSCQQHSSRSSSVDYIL

Ki [1] [nM] | Compound | Ki [2] [nM]
< 30000 | CC(C)(C)OC(=O)N1CCC(NS(=O)(=O)c2ccc(NC(=O)C3CCC3)c3ccccc23)CC1 [Compound B-18, 4-[4-(Cyclobutanecarbonyl-amino)-naphthalene-1-sulfonylamino]-piperidine-1-carboxylic acid tert-butyl ester] | –
< 500 | CCOC(=O)N1CCCC(NS(=O)(=O)c2ccc(NC(=O)c3ccccc3C)c3ccccc23)C1 (racemic) [Compound C-115, (±)-3-[4-(2-Methyl-benzoylamno)-naphthalene-1-sulfonylamino]-piperidine-1-carboxylic acid ethyl ester] | –
< 500 | CCCC(=O)N1CCC(NS(=O)(=O)c2ccc(NC(=O)C3CC3)c3ccccc23)CC1 [Compound D-15, Cyclopropanecarboxylic acid [4-(1-butyryl-piperidin-4-ylsulfamoyl)-naphthalen-1-yl]-amide] | –
< 500 | CCOC(=O)N1CCCC(NS(=O)(=O)c2ccc(NC(=O)c3ccccc3C)c3c2CCCC3)C1 (racemic) [Compound E-31, (±)-3-[4-(2-Methyl-benzoylamino)-5,6,7,8-tetrahydro-naphthalene-1-sulfonylamino]-piperidine-1-carboxylic acid ethyl ester] | –
< 500 | Cc1ccccc1C(=O)Nc1ccc(S(=O)(=O)NC2[C@@H](C)CNC[C@@H]2C)c2ccccc12 [Compound J-46] | –
< 500 | Cc1ccccc1NC(=O)c1ccc(S(=O)(=O)NC2CCN(C(=O)OC(C)(C)C)CC2)c2ccccc12 [Compound F-4, 4-(4-o-Tolylcarbamoyl-naphthalene-1-sulfonylamino)-piperidine-1-carboxylic acid tert-butyl ester] | –
– | Cc1ccccc1C(=O)Nc1ccc(S(=O)(=O)NC2CCN(C(=O)C(C)C)CC2)c2ccccc12 [Compound C-51, N-[4-(1-Isobutyryl-piperidin-4-ylsuffamoyl)-naphthalen-1-yl]-2-methyl-benzamide] | < 500
< 500 | CCOC(=O)N1CCC(NS(=O)(=O)c2ccc(NC(=O)c3ccccc3C#N)c3ccccc23)CC1 [Compound B-26, 4-[4-(2-Cyano-benzoylamino)-naphthalene-1-sulfonylamino]-piperidine-1-carboxylic acid ethyl ester] | –
< 500 | Cc1ccccc1C(=O)Nc1ccc(S(=O)(=O)N[C@H]2CCN(C(=O)[C@H](C)N)C[C@@H]2C)c2ccccc12 [Compound J-2, (3S, 4S)-N-{4-[1-(2-(S)-Amino-propionyl)-3-methyl-piperidin-4-ylsulfamoyl]-naphthalen-1-yl}-2-methyl-benzamide] | –
< 500 | Cc1ccccc1C(=O)Nc1cccc2c(S(=O)(=O)N[C@H]3CCN(C(=O)CN(C)C)C[C@H]3C)cccc12 (racemic) [Compound K-1, (±)-(cis)-N-{5-[1-(2-Dimethylamino-acetyl)-3-methyl-piperidin-4-ylsulfamoyl]-naphthalen-1-yl}-2-methyl-benzamide] | –
< 1000 | CCOC(=O)N1CCC(NS(=O)(=O)c2ccc(NC(=O)c3cccc(C)c3)c3ccccc23)CC1 [Compound B-13, 4-[4-(3-Methyl-benzoylamino)-naphthalene-1-sulfonylamino]-piperidine-1-carboxylic acid ethyl ester] | –
< 1000 | CC(C)(C)OC(=O)N1CCC(NS(=O)(=O)c2ccc(NC(=O)c3cccnc3)c3ccccc23)CC1 [Compound B-20, 4-{4-[(Pyridine-3-carbonyl)-amino]-naphthalene-1-sulfonylamino}-piperidine-1-carboxylic acid tert-butyl ester] | –
< 500 | O=C(Nc1ccc(S(=O)(=O)NC2CCN(C(=O)C3CCCC3)CC2)c2ccccc12)c1ccccc1 [Compound C-5, N-[4-(1-Cyclopentanecarbonyl-piperidin-4-ylsulfamoyl)-naphthalen-1-yl]-benzamide] | –
< 30000 | O=C(Nc1ccc(S(=O)(=O)NC2CCNCC2)c2ccccc12)C1CCC1 [Compound D-13, Cyclobutanecarboxylic acid [4-(piperidin-4-ylsulfamoyl)-naphthalen-1-yl]-amide] | –
– | CCCC(=O)N1CCC(NS(=O)(=O)c2ccc(NC(=O)C3CCCC3)c3ccccc23)CC1 [Compound D-18, Cyclopentanecarboxylic acid [4-(1-butyryl-piperidin-4-ylsulfamoyl)-naphthalen-1-yl]-amide] | < 500
< 500 | CCCS(=O)(=O)N1CCC(NS(=O)(=O)c2ccc(NC(=O)c3ccccc3C)c3ccccc23)CC1 [Compound C-59, 2-Methyl-N-{4-[1-(propane-1-sulfonyl)-piperidin-4-ylsulfamoyl]-naphthalen-1-yl}-benzamide] | –
< 500 | CCCC(=O)N1CCC(NS(=O)(=O)c2ccc(NC(=O)C3CCOCC3)c3ccccc23)CC1 [Compound D-20, Tetrahydro-pyran-4-carboxylic acid [4-(1-butyryl-piperidin-4-ylsulfamoyl)-naphthalen-1-yl]-amide] | –

Ki [1] [nM] | Compound | Ki [2] [nM]
< 500 | COc1ccc(NS(=O)(=O)c2cccc3c(NC(=O)c4ccccc4)cccc23)cc1 [Compound H-1, N-[5-(4-Methoxy-phenylsulfamoyl)-naphthalen-1-yl]-benzamide] | –
< 30000 | CCOC(=O)c1ccc(NS(=O)(=O)c2cccc3c(NC(=O)c4ccccc4C)cccc23)cc1 [Compound H-19, 4-[5-(2-Methyl-benzoylamino)-naphthalene-1-sulfonylamino]-benzoic acid ethyl ester] | –
< 500 | CCc1ccc(NS(=O)(=O)c2ccc(NC(=O)c3ccccc3)c3ccccc23)cc1 [Compound A-26, N-[4-(4-Ethyl-phenylsulfamoyl)-naphthalen-1-yl]-benzamide] | –
< 500 | CCNC(=O)N1CCC(NS(=O)(=O)c2ccc(NC(=O)c3ccccc3F)c3ccccc23)CC1 [Compound C-100, 4-[4-(2-Fluoro-benzoylamino)-naphthalene-1-sulfonylamino]-piperidine-1-carboxylic acid ethylamide] | –
< 500 | CCOC(=O)N1CCC(NS(=O)(=O)c2ccc(NC(=O)c3ccccc3C)c3ccccc23)C(C)(C)C1 (racemic) [Compound C-20, (±)-3,3-Dimethyl-4-[4-(2-methyl-benzoylamino)-naphthalene-1-sulfonylamino]-piperidine-1-carboxylic acid ethyl ester] | –
– | Cc1ccccc1C(=O)Nc1ccc(S(=O)(=O)NC2CCN(C(=O)N(C)C)CC2)c2ccccc12 [Compound C-47, 4-[4-(2-Methyl-benzoylamino)-naphthalene-1-sulfonylamino]-piperidine-1-carboxylic acid dimethylamide] | < 500
< 500 | Cc1ccccc1C(=O)Nc1ccc(S(=O)(=O)N[C@H]2CCN(C(=O)N(C)C)C[C@H]2C)c2ccccc12 (racemic) [Compound C-29, (±)-cis-3-Methyl-4-[4-(2-methyl-benzoylandno)-naphthalene-1-sulfonylamio]-piperidine-1-carboxylic acid dimethylamide] | –
< 30000 | O=C(Nc1ccc(S(=O)(=O)NC2CCNCC2)c2ccccc12)C1CCCC1 [Compound D-11, Cyclopentanecarboxylic acid [4-(piperidin-4-ylsulfamoyl)-naphthalen-1-yl]-amide] | –
< 1000 | CCOC(=O)N1CC[C@@H](NS(=O)(=O)c2ccc(NC(=O)c3ccccc3C)c3ccccc23)[C@@H](C)C1 (single isomer, unassigned) [Compound C-138, cis-3-Methyl-4-[4-(2-methyl-benzoylamino)-naphthalene-1-sulfonylamino]-piperidine-1-carboxylic acid ethyl ester] | –
– | O=C(Nc1ccc(S(=O)(=O)Nc2ccccc2)c2ccccc12)c1ccccc1 [Compound A-7, N-(4-Phenylsulfamoyl-naphthalen-1-yl)-benzamide] | < 1000
< 500 | CCOC(=O)N1CC[C@H](NS(=O)(=O)c2ccc(NC(=O)c3ccccc3C)c3c2CCCC3)[C@H](C)C1 (racemic) [Compound E-21, (±)-cis-3-Methyl-4-[4-(2-methyl-benzoylamino)-5,6,7,8-tetrahydro-naphthalene-1-sulfonylamino]-piperidine-1-carboxylic acid ethyl ester] | –
< 30000 | CC(C)NS(=O)(=O)c1ccc(NC(=O)c2ccccc2)c2ccccc12 [Compound A-11, N-(4-Isopropylsulfamoyl-naphthalen-1-yl)-benzamide] | –
< 500 | CCCC(=O)N1CCC(NS(=O)(=O)c2ccc(C(=O)Nc3ccccc3)c3ccccc23)CC1 [Compound F-25, 4-(1-Butyryl-piperidin-4-ylsulfamoyl)-naphthalene-1-carboxylic acid phenylamide] | –
< 30000 | CCN(CC)CC(=O)N1CC[C@@H](NS(=O)(=O)c2ccc(NC(=O)c3ccccc3C)c3ccccc23)[C@@H](C)C1 (racemic) [Compound C-144, (±)-N-{4-[1-(2-diethylamino-acetyl)-3-cis-methyl-piperidin-4-ylsulfamoyl]-naphthalen-1-yl}-2-methyl-benzamide] | –
< 500 | Cc1ccccc1C(=O)Nc1ccc(S(=O)(=O)NC2CCNC2)c2ccccc12 (racemic) [Compound C-48, (±)-2-Methyl-N-[4-(pyrrolidin-3-ylsulfamoyl)-naphthalen-1-yl]-benzamide] | –
< 500 | Cc1ccccc1C(=O)Nc1ccc(S(=O)(=O)N[C@H]2CCN(C(=O)[C@H](C)N)C[C@H]2C)c2ccccc12 [Compound J-5, (3R, 4S)-N-{4-[1-(2-(S)-Amino-propionyl)-3-methyl-piperidin-4-ylsulfamoyl]-naphthalen-1-yl}-2-methyl-benzamide] | –
< 1000 | CCCC(=O)N1CC[C@@H](NS(=O)(=O)c2ccc(NC(=O)c3ccccc3C)c3ccccc23)[C@@H](C)C1 (single isomer, unassigned) [Compound C-141, cis-N-[4-(1-butyryl-3-methyl-piperidin-4-ylsuffamoyl)-naphthalen-1-yl]-2-methyl-benzamide] | –
